Key:
Pyricularia oryzae = format: cell-based; conditions: 125 ppm, day 7 after inoculation, absorption 405 nm, control = 100%
Puccinia recondita = test: Curative activity against brown rust of wheat (greenhouse test); format: in vivo; conditions: 250 ppm, curative spray on wheat seedlings cv. Kanzler, 7 days; untreated control 90% infected
Method: The active compounds were prepared separately as a stock solution with 25 mg of active compound which was made up to 10 ml with a mixture of acetone and/or DMSO and the emulsifier Uniperol® EL (wetting agent having emulsifying and dispersing action based on ethoxylated alkylphenols) in a solvent/emulsifier volume ratio of 99 to 1. The solution was then made up to 100 ml with water. This stock solution was diluted to the active compound concentration stated below using the solvent/emulsifier/water mixture described.
Example No. 1—Curative activity against brown rust of wheat caused by Puccinia recondita
Leaves of potted wheat seedlings of the cultivar “Kanzler” were inoculated with a spore suspension of brown rust (Puccinia recondita). The pots were then placed in a chamber with high atmospheric humidity (90 to 95%) and 20 to 22° C. for 24 hours. During this time, the spores germinated and the germ tubes penetrated into the leaf tissue. The next day, the infected plants were sprayed to runoff point with the above-described active compound solution at the active compound concentration stated below. After the spray coating had dried on, the test plants were cultivated in a greenhouse at temperatures between 20 and 22° C. and at 65 to 70% relative atmospheric humidity for 7 days. The extent of the rust fungus development on the leaves was then determined.

**Q.** What does the source list for `Cc1cc(C)n(-c2c(C)nc3ncnn3c2N2CCC(C)CC2)n1` [Compound C-1, 6-(3,5-Dimethylpyrazol-1-yl)-5-methyl-7-(4-methylpiperidin-1-yl)-[1,2,4]-triazolo[1,5-a]pyrimidin]?
**A.** relative growth (Pyricularia oryzae): 0%; infection (Puccinia recondita): 10%
